Species: Rattus norvegicus
Experiment: DrugMatrix - Regimen: Daily Repeat
Format: toxicity, organism-based, Sprague-Dawley
Parameters: regimen Daily Repeat, gender Male, age 6-8 weeks
Conditions: in vivo, po, route oral GAVAGE, […]; for ABSOLUTE BASOPHIL / ABSOLUTE EOSINOPHIL / ABSOLUTE LYMPHOCYTE / ABSOLUTE MONOCYTE / ABSOLUTE SEGMENTED NEUTROPHIL / BASOPHIL / EOSINOPHIL / ERYTHROCYTE COUNT / HEMATOCRIT / HEMOGLOBIN / LEUKOCYTE COUNT / LYMPHOCYTE / MEAN CORPUSCULAR HEMOGLOBIN / MEAN CORPUSCULAR HEMOGLOBIN CONCENTRATION / MEAN CORPUSCULAR VOLUME / MONOCYTE / NEUTROPHIL / NUCLEATED RED BLOOD CELLS / PLATELET COUNT: tissue Blood; for ALANINE AMINOTRANSFERASE / ALBUMIN / ALKALINE PHOSPHATASE / ASPARTATE AMINOTRANSFERASE / BLOOD UREA NITROGEN / CARBON DIOXIDE / CHLORIDE / CHOLESTEROL / CREATINE PHOSPHOKINASE / CREATININE / GLUCOSE / LACTATE DEHYDROGENASE / LIPASE / PHOSPHORUS / POTASSIUM / SODIUM / TOTAL BILIRUBIN / TOTAL PROTEIN / URIC ACID: tissue Plasma
[1] = 0 mg/kg, 72 h, dose level Control, time 3 day
[2] = 0 mg/kg, 120 h, dose level Control, time 5 day
[3] = 10 mg/kg, 72 h, dose level Low, time 3 day

Compound: c1ccc2[nH]c(-c3cscn3)nc2c1 [THIABENDAZOLE]
- ABSOLUTE BASOPHIL [1]: 0 CELLS/uL
- ABSOLUTE EOSINOPHIL [1]: 13.67 CELLS/uL
- ABSOLUTE LYMPHOCYTE [1]: 10069.5 CELLS/uL
- ABSOLUTE MONOCYTE [1]: 50 CELLS/uL
- ABSOLUTE SEGMENTED NEUTROPHIL [1]: 516.83 CELLS/uL
- BASOPHIL [1]: 0%
- EOSINOPHIL [1]: 0.17%
- ERYTHROCYTE COUNT [1]: 5.44 x10E6/uL
- HEMATOCRIT [1]: 33.88%
- HEMOGLOBIN [1]: 13.23 G/DL
- LEUKOCYTE COUNT [1]: 10.65 x10E3/uL
- LYMPHOCYTE [1]: 94.67%
- MEAN CORPUSCULAR HEMOGLOBIN [1]: 24.37 pg
- MEAN CORPUSCULAR HEMOGLOBIN CONCENTRATION [1]: 39.05 G/DL
- MEAN CORPUSCULAR VOLUME [1]: 62.38 fL
- MONOCYTE [1]: 0.67%
- NEUTROPHIL [1]: 4.5%
- NUCLEATED RED BLOOD CELLS [1]: 0.33 /100WBC
- PLATELET COUNT [1]: 414.5 x10E3/uL
- ALANINE AMINOTRANSFERASE [1]: 72 u/L
- ALBUMIN [1]: 3.75 G/DL
- ALKALINE PHOSPHATASE [1]: 375 u/L
- ASPARTATE AMINOTRANSFERASE [1]: 87.5 u/L
- BLOOD UREA NITROGEN [1]: 14 mg/dL
- CARBON DIOXIDE [1]: 27.5 mmol/L
- CHLORIDE [1]: 95.83 MEQ/L
- CHOLESTEROL [1]: 68.5 mg/dL
- CREATINE PHOSPHOKINASE [1]: 284.33 u/L
- CREATININE [1]: 0.16 mg/dL
- GLUCOSE [1]: 156.67 mg/dL
- LACTATE DEHYDROGENASE [1]: 101.83 u/L
- LIPASE [1]: 9.67 u/L
- PHOSPHORUS [1]: 10.33 mg/dL
- POTASSIUM [1]: 5.22 MEQ/L
- SODIUM [1]: 137.67 MEQ/L
- TOTAL BILIRUBIN [1]: 0.13 mg/dL
- TOTAL PROTEIN [1]: 5.43 G/DL
- URIC ACID [1]: 0.8 mg/dL
- ABSOLUTE BASOPHIL [2]: 0 CELLS/uL
- ABSOLUTE EOSINOPHIL [2]: 20.67 CELLS/uL
- ABSOLUTE LYMPHOCYTE [2]: 11518.33 CELLS/uL
- ABSOLUTE MONOCYTE [2]: 47 CELLS/uL
- ABSOLUTE SEGMENTED NEUTROPHIL [2]: 614 CELLS/uL
- BASOPHIL [2]: 0%
- EOSINOPHIL [2]: 0.17%
- ERYTHROCYTE COUNT [2]: 5.61 x10E6/uL
- HEMATOCRIT [2]: 34.25%
- HEMOGLOBIN [2]: 13.38 G/DL
- LEUKOCYTE COUNT [2]: 12.2 x10E3/uL
- LYMPHOCYTE [2]: 94.33%
- MEAN CORPUSCULAR HEMOGLOBIN [2]: 23.83 pg
- MEAN CORPUSCULAR HEMOGLOBIN CONCENTRATION [2]: 39.08 G/DL
- MEAN CORPUSCULAR VOLUME [2]: 61.03 fL
- MONOCYTE [2]: 0.33%
- NEUTROPHIL [2]: 5.17%
- NUCLEATED RED BLOOD CELLS [2]: 0 /100WBC
- PLATELET COUNT [2]: 941.83 x10E3/uL
- ALANINE AMINOTRANSFERASE [2]: 68.83 u/L
- ALBUMIN [2]: 4.12 G/DL
- ALKALINE PHOSPHATASE [2]: 492.67 u/L
- ASPARTATE AMINOTRANSFERASE [2]: 83.33 u/L
- BLOOD UREA NITROGEN [2]: 14 mg/dL
- CARBON DIOXIDE [2]: 37 mmol/L
- CHLORIDE [2]: 98.67 MEQ/L
- CHOLESTEROL [2]: 56.5 mg/dL
- CREATINE PHOSPHOKINASE [2]: 167.33 u/L
- CREATININE [2]: 0.17 mg/dL
- GLUCOSE [2]: 157.5 mg/dL
- LACTATE DEHYDROGENASE [2]: 104.83 u/L
- LIPASE [2]: 10 u/L
- PHOSPHORUS [2]: 10.43 mg/dL
- POTASSIUM [2]: 5.46 MEQ/L
- SODIUM [2]: 143.87 MEQ/L
- TOTAL BILIRUBIN [2]: 0.17 mg/dL
- TOTAL PROTEIN [2]: 5.72 G/DL
- URIC ACID [2]: 0.85 mg/dL
- ABSOLUTE BASOPHIL [3]: 0 CELLS/uL
- ABSOLUTE EOSINOPHIL [3]: 0 CELLS/uL
- ABSOLUTE LYMPHOCYTE [3]: 5878.33 CELLS/uL
- ABSOLUTE MONOCYTE [3]: 47.67 CELLS/uL
- ABSOLUTE SEGMENTED NEUTROPHIL [3]: 707.33 CELLS/uL
- BASOPHIL [3]: 0%
- EOSINOPHIL [3]: 0%
- ERYTHROCYTE COUNT [3]: 5.01 x10E6/uL
- HEMATOCRIT [3]: 31.07%
- HEMOGLOBIN [3]: 12.3 G/DL
- LEUKOCYTE COUNT [3]: 6.63 x10E3/uL
- LYMPHOCYTE [3]: 88.67%
- MEAN CORPUSCULAR HEMOGLOBIN [3]: 24.73 pg
- MEAN CORPUSCULAR HEMOGLOBIN CONCENTRATION [3]: 39.77 G/DL
- MEAN CORPUSCULAR VOLUME [3]: 62.1 fL
- MONOCYTE [3]: 0.67%
- NEUTROPHIL [3]: 10.67%
- NUCLEATED RED BLOOD CELLS [3]: 0 /100WBC
- PLATELET COUNT [3]: 848.67 x10E3/uL
- ALANINE AMINOTRANSFERASE [3]: 79.33 u/L
- ALBUMIN [3]: 3.7 G/DL
- ALKALINE PHOSPHATASE [3]: 386.33 u/L
- ASPARTATE AMINOTRANSFERASE [3]: 90.33 u/L
- BLOOD UREA NITROGEN [3]: 13.33 mg/dL
- CARBON DIOXIDE [3]: 25 mmol/L
- CHLORIDE [3]: 96 MEQ/L
- CHOLESTEROL [3]: 74 mg/dL
- CREATINE PHOSPHOKINASE [3]: 147.33 u/L
- CREATININE [3]: 0.21 mg/dL
- GLUCOSE [3]: 143.33 mg/dL
- LACTATE DEHYDROGENASE [3]: 107.33 u/L
- LIPASE [3]: 12.67 u/L
- PHOSPHORUS [3]: 10.57 mg/dL
- POTASSIUM [3]: 5.5 MEQ/L
- SODIUM [3]: 138.4 MEQ/L
- TOTAL BILIRUBIN [3]: 0.13 mg/dL
- TOTAL PROTEIN [3]: 5.33 G/DL
- URIC ACID [3]: 0.87 mg/dL

From ChEMBL document CHEMBL3885881, “DrugMatrix”
